Laboratory results reported in patent EP0109354B1, “Biocidally active mixture” (priority 1982, dated 1984).
Where two headings read alike, the source gives them in different places.

How the values were obtained:
[1] = test system: Schleimbildung und Algenbewuchs; experiment: Efficacy in outdoor cooling circuits, visual assessment of growth on the plates; conditions: phosphonium compound alone, same concentration and frequency (21 ppm twice a week); stated conditionally ('würde')
Text: Untersuchung der Wirksamkeit in Kühlkreisläufen
Die im Freien stehenden (natürliche Sonneneinstrahlung, Staubeinfall, Witterungseinflüsse) Kühlkreisläufe bestanden aus: • a) einem Kunststoffass mit einem Volumen von 113 I und einem Überlauf • b) einer Pumpe (21 1/min bei 3 m Förderhöhe) • c) einem Kühlturm mit Oregon-(Splint), Oregon-(Kernholz), Eiche-, Fichte-, Asbestzement- und PVC-Platte
Die Frischwasser-Zufuhr war so eingestellt, dass der Spritz- und Verdunstungsverlust ausgeglichen wurde und die Biocide in 24 h ungefähr 1:2 verdünnt wurden.
Die Kühlkreisläufe sind durch den natürlichen Staubeinfall und nicht durch gezielte Beimpfung infiziert.
Zur Verhinderung der Schleimbildung und des Algenwuchses wurde der Kühlkreislauf mit 21 ppm 2mal/Woche einer Lösung von 45% der Verbindung 17 und 5% der Verbindung 13 in Wasser behandelt.
Ausgewertet wurde der Versuch durch visuelle Beobachtung des Bewuchses auf den Platten.
Der unbehandelte Kreislauf zeigte schon nach 4 Wochen den ersten Algenbewuchs, die Hölzer waren nach 5 Monaten verschleimt und mit einer dicken Algenschicht überzogen. Der mit 21 ppm 2mal/Woche behandelte Kreislauf zeigte keinerlei Anzeichen von beginnender Schleimbildung und Algenbewuchs.

Molecule: CCCCCCCCCCCC[P+](CCCC)(CCCC)CCCC.[Cl-] [Verbindung 16, Tri-n-butyl-n-dodecyl-phosphoniumchlorid]
- P-Verbindung (Mol-%) Endkonzentration (Bsp. 6: as Beispiel 1, P compound 16 with Sn compound 2): 17,9 Mol-%

Molecule: CCCCCCCCCCCCCC[P+](CCCC)(CCCC)CCCC.[Cl-] [Verbindung 17, Tri-n-butyl-tetradecyl-phosphoniumchlorid]
- Unterdrückung des Algenbewuchses [1]: nicht gänzlich unterdrücken
- Endkonzentration der P-Verbindung (Beispiel 2: with 3,8 Mol-% of Vrb. 3 dissolved): 15.3 Mol-%
- Endkonzentration der P-Verbindung (Beispiel 3: with 2,9 Mol-% of Vrb. 2 dissolved): 16,7 Mol-%
- P-Verbindung (Mol-%) Endkonzentration (Bsp. 4: as Beispiel 1, P compound 17 with Sn compound 8): 13,1 Mol-%

Molecule: CCCCCCCCCC[P+](CCCC)(CCCC)CCCC.[Cl-] [Verbindung 18, Tri-n-butyl-n-decyl-phosphoniumchlorid]
- P-Verbindung (Mol-%) Endkonzentration (Bsp. 5: as Beispiel 1, P compound 18 with Sn compound 2): 19,2 Mol-%

Molecule: CCCCCCCCCCCCCC[P+](CCCC)(CCCC)CCCC.[Br-] [Verbindung 19, Tri-n-butyl-n-tetradecylphosphoniumbromid]
- P-Verbindung (Mol-%) Endkonzentration (Bsp. 7: as Beispiel 1, P compound 19 with Sn compound 2): 15,9 Mol-%

Molecule: Tri-n-butylzinnaphtenat [Verbindung 8]
- Sn-Verbindung (Mol-%) Endkonzentration (Bsp. 4: as Beispiel 1, Sn compound 8 in solution of P compound 17): 7,1 Mol-%
